Test [1] addresses Mitogen-activated protein kinase kinase kinase 8 (Homo sapiens) (UniProt P41279). The experiment in a line: Residual activity of COT at 1 uM by microplate scintillation counting.
Test [2] deals with Tyrosine-protein kinase Fer (Homo sapiens) (UniProt P16591). The experiment in a line: Residual activity of FER at 0.1 uM by microplate scintillation counting.
Test [3] addresses T1, Protein kinase C zeta type (Homo sapiens) (UniProt Q05513).
T1 sequence (whole entry): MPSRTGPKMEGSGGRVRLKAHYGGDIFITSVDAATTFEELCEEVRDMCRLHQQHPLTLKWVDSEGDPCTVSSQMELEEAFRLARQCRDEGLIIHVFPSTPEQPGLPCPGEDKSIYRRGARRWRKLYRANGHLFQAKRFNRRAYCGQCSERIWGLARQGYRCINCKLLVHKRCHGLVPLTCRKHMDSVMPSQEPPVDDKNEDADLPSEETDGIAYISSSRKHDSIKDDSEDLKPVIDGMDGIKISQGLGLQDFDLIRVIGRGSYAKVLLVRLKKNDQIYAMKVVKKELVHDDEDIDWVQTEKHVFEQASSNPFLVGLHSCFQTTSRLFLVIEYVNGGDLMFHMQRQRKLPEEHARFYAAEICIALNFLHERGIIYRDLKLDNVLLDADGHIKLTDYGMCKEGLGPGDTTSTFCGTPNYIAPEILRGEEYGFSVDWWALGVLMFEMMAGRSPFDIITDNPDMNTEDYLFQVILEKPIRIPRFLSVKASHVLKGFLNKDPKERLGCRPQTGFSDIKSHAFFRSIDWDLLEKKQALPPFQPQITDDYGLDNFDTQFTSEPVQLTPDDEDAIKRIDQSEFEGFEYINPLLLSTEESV
The experiment in a line: Residual activity of PKCzeta at 1 uM by microplate scintillation counting.

In test [4] the target is Serine/threonine-protein kinase WNK3 (Homo sapiens) (UniProt Q9BYP7). In words: Residual activity of WNK3 at 1 uM by microplate scintillation counting.
The target of test [5] is Casein kinase I isoform gamma-3 (Homo sapiens) (UniProt Q9Y6M4). The experiment in a line: Residual activity of CK1gamma3 at 10 uM by microplate scintillation counting.
Casein kinase I isoform gamma-3 (Homo sapiens), sequence (Q9Y6M4 whole entry, looked up, canonical isoform): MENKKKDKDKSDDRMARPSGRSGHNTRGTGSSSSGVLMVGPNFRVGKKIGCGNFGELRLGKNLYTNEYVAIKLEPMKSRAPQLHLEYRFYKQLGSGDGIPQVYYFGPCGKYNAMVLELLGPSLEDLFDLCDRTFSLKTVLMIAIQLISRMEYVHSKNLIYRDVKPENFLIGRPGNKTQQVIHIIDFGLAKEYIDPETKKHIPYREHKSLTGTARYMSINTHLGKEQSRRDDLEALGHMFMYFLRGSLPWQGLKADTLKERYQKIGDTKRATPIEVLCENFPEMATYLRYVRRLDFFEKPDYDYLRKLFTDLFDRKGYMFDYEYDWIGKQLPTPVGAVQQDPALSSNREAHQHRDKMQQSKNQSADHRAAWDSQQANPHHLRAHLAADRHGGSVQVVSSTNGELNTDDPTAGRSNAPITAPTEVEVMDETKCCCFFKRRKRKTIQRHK
In test [6] the target is T2, Serine/threonine-protein kinase 3 (Homo sapiens) (UniProt Q13188).
T2 sequence (whole entry): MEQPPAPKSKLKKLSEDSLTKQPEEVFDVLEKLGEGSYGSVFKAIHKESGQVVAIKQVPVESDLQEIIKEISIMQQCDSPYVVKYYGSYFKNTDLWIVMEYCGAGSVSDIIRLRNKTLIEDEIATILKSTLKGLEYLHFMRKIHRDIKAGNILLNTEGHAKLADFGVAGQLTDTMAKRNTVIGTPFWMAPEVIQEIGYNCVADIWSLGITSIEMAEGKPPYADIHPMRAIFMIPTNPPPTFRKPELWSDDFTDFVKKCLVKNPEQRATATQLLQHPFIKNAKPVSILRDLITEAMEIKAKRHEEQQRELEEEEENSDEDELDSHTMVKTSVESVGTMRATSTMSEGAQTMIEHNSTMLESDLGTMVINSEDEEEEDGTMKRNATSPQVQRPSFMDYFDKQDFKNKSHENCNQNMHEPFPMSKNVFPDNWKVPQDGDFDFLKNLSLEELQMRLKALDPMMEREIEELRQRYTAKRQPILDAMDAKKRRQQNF
In words: Residual activity of MST2 at 10 uM by microplate scintillation counting.

The target in test [7] is T3, Serine/threonine-protein kinase D1 (Homo sapiens) (UniProt Q15139).
T3 sequence (whole entry): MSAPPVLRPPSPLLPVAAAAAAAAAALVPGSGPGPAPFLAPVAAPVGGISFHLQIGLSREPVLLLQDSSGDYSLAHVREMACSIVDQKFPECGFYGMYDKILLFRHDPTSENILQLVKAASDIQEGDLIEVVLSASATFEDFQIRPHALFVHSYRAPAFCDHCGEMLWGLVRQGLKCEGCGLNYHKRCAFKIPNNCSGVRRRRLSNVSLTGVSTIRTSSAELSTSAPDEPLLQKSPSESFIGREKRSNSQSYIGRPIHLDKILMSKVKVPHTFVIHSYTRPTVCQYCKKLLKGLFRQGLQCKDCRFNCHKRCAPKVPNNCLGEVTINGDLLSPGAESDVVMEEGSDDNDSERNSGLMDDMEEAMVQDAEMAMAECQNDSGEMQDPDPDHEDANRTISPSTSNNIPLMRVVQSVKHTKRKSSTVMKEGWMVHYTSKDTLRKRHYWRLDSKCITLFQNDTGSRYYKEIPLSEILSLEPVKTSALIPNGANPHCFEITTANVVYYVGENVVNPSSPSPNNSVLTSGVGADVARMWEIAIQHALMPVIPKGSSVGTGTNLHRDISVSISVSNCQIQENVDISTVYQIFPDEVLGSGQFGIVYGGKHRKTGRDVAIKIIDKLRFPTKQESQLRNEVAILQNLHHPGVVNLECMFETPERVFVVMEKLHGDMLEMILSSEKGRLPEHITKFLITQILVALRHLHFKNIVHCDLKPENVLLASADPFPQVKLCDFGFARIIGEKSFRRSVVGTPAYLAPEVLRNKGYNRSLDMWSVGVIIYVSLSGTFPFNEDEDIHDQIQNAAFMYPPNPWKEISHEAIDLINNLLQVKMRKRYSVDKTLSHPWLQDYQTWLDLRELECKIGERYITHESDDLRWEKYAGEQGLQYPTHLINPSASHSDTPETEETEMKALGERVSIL
In words: Residual activity of PKCmu at 10 uM by microplate scintillation counting.

The target in test [8] is Calcium/calmodulin-dependent protein kinase type II subunit beta (Homo sapiens) (UniProt Q13554). The experiment in a line: Residual activity of CAMK2B at 1 uM by microplate scintillation counting.
Calcium/calmodulin-dependent protein kinase type II subunit beta (Homo sapiens), sequence (Q13554 whole entry): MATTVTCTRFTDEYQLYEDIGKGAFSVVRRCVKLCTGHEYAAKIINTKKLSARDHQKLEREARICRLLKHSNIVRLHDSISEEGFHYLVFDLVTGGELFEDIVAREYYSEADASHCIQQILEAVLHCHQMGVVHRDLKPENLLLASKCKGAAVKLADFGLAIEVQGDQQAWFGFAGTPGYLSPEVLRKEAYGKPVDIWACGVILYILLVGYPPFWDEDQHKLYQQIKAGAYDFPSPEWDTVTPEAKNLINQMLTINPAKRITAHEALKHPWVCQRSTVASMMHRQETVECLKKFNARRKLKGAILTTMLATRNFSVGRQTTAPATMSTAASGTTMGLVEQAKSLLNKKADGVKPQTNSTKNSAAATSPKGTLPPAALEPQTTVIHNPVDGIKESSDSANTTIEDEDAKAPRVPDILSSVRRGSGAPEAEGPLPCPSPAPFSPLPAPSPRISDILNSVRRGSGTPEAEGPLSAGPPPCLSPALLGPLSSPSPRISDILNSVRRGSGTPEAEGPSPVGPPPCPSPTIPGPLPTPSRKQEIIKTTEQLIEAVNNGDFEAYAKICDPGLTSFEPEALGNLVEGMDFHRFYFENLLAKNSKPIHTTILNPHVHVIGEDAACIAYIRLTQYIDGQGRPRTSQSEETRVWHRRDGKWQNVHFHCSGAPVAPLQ
Test [9] addresses Serine/threonine-protein kinase PLK3 (Homo sapiens) (UniProt Q9H4B4). In words: Residual activity of PLK3 at 0.1 uM by microplate scintillation counting.
Test [10] has as its target Macrophage-stimulating protein receptor (Homo sapiens) (UniProt Q04912). The experiment in a line: Residual activity of RON at 0.1 uM by microplate scintillation counting.

Mitogen-activated protein kinase kinase kinase 8 (Homo sapiens), sequence (P41279 whole entry): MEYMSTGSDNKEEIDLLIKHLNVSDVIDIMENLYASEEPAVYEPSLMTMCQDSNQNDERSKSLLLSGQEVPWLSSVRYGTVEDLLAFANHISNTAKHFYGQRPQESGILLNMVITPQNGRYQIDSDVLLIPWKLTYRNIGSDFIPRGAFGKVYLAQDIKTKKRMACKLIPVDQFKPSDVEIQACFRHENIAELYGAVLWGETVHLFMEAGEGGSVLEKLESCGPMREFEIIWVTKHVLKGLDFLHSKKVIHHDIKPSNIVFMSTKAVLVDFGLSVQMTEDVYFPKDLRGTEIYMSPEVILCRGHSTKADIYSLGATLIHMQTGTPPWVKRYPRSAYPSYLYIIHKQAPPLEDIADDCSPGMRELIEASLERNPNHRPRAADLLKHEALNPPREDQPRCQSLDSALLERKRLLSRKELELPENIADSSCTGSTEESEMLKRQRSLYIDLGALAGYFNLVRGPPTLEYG
Tyrosine-protein kinase Fer (Homo sapiens), sequence (P16591 whole entry, looked up): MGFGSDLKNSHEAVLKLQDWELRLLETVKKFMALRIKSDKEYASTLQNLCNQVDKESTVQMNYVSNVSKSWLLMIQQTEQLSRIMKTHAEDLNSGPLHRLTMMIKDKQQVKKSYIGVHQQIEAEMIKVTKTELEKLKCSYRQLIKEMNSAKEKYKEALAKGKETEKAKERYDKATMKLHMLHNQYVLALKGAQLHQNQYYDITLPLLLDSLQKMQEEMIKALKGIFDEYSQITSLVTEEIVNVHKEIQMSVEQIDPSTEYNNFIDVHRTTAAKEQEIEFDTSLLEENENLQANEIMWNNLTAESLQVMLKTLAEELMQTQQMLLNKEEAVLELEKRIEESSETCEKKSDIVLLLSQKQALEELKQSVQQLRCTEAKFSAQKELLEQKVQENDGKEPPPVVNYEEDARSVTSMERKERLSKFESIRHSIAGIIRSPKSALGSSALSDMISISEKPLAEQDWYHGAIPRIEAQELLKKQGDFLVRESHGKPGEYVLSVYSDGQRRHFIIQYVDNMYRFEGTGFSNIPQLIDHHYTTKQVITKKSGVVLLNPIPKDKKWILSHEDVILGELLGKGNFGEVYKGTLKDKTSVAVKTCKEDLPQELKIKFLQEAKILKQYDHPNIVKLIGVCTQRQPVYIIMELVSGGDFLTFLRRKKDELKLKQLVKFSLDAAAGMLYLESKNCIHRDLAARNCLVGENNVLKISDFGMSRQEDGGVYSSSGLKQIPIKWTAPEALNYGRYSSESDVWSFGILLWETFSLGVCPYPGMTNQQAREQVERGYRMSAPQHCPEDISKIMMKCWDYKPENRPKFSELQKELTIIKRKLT
Serine/threonine-protein kinase PLK3 (Homo sapiens), sequence (Q9H4B4 whole entry, looked up): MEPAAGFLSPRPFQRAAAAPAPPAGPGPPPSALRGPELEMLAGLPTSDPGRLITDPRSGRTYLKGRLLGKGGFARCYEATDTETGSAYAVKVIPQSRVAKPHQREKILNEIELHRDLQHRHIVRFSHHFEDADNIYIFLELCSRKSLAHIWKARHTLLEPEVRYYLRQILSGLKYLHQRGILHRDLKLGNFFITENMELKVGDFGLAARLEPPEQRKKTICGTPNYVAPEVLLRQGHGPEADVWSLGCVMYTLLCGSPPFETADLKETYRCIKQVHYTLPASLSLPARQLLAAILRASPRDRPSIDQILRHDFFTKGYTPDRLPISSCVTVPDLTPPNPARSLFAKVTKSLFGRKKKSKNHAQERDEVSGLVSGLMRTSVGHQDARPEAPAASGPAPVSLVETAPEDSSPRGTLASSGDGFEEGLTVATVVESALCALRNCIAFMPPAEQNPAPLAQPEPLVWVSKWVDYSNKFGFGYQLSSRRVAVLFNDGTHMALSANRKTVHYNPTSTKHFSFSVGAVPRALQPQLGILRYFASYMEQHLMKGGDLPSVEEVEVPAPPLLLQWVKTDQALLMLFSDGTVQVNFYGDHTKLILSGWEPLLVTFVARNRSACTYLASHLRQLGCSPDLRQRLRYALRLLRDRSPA
Macrophage-stimulating protein receptor (Homo sapiens), sequence (Q04912 25-304 limits assumed): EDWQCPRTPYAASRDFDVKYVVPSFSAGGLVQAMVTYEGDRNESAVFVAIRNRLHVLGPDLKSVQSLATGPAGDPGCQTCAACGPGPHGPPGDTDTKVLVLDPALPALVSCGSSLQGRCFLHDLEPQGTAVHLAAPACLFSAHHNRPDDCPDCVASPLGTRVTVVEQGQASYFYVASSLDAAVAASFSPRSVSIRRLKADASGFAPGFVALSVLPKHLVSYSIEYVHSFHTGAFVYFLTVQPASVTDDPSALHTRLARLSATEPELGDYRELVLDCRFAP
Macrophage-stimulating protein receptor (Homo sapiens), sequence (Q04912 310-1400 limits assumed): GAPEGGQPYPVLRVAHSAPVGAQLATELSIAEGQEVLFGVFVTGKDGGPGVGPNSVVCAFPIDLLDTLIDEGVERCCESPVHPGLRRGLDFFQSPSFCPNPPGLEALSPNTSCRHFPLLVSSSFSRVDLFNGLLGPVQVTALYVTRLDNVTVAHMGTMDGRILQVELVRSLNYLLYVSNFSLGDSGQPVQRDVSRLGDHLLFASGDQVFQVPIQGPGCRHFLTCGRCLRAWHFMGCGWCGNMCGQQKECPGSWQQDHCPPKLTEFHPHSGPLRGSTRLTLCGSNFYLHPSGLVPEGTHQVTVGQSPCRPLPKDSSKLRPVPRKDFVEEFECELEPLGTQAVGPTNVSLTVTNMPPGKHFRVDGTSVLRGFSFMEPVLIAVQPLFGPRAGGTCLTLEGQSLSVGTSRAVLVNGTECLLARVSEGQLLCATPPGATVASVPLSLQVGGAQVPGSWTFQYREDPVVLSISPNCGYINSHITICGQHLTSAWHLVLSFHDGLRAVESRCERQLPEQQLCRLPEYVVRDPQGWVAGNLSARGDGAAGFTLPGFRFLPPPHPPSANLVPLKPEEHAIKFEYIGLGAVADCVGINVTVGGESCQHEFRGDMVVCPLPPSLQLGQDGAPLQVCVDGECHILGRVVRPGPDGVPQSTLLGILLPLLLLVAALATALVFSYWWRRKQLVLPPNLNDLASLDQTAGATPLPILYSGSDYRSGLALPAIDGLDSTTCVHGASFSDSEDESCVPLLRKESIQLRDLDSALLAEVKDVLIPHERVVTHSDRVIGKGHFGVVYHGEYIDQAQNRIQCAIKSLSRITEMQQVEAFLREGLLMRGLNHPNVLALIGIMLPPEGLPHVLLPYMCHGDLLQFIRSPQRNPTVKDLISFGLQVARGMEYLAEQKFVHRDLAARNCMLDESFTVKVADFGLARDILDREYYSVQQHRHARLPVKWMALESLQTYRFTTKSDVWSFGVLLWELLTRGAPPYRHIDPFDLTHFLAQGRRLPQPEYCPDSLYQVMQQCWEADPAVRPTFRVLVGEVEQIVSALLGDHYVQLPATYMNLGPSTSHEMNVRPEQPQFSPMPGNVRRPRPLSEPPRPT

Regarding `COc1cc2c(Oc3ccc(-c4nc5ccccc5s4)cc3F)ncnc2cc1OCCCN1CCN(C)CC1`, the residual activity in test [1] came out at 77%; in test [2], 108%; in test [3] it was 107%; in test [4], 69%; in test [5], 105%; in [6], 23%. The residual activity in test [7] turned out to be 111%; in [8], 82%; in test [9] it was 87%; in [10], 72%.

In the case of `COc1cc2c(Oc3ccc(-c4nc5ccccc5s4)cc3)ncnc2cc1OCCCN1CCN(C)CC1`, the residual activity in test [1] is -18%; in [2], 104%; in test [3] it was 92%; in [4] it was 64%; in test [5], 107%; in [6], 21%. In addition, the residual activity in [7] turned out to be 122%; in test [8], 103%; in [9], 88%; in test [10], 74%.

For the compound `COc1cc2c(Oc3ccc(-c4nc5ccccc5s4)cc3)ncnc2cc1OCCCN1CCCC1`, the residual activity in [1] turned out to be 73%; in [2] it was 96%; in test [3], 109%; in [4] it was 76%; in test [5] it was 101%; in [6], 20%. Also, the residual activity in [7] was 126%; in test [8], 70%; in [9] it was 87%; in test [10], 90%.
